From patent US7629385B2, “Sphingolipid-derived pharmaceutical compositions” (priority 2004, dated 2009)

Tests used:
PR8 virus = assay: microbe, parasite or virus in culture; type: cell-based, influenza virus
Raft liposomes = assay: Disrafter-Liposome Raftophile Assay (D-LRA); conditions: test compound 100 μM
Procedure: The raftophilicity of certain fluorescent indicators varies with the raft content of liposomes which, in turn, is determined by their lipid composition and the presence of raft modulators.
The D-LRA assay detects two extremes of raft modulation, disrafting and raft augmentation. % disrafting below 0 results from an actual increase in partition of the indicator, caused by an increased raft content of the liposomes. […] Significance can be ascribed to values above 25% (disrafting) and below −25% (disrafters by “augmentation”).
Liposomes (defined below) with a raft content of about 50% are incubated with potential disrafters. The change in raft content is then determined with an indicator (standard raftophile).
Raft liposomes: (35% cholesterol, 10.5% shingomyelin (SM), 3.5% GM1, 25.5% phosphatidylethanolamine (PE) and 25.5% phosphatidylcholine (PC))
Non-raft liposomes: N liposomes (50% PE, PC)
Liposomes are prepared by spreading lipids dissolved in tert. butanol on a glass surface at 50° C. in a rotary evaporator rinsed with nitrogen. After 6 h desiccation the lipids are taken up in 40 mM octyl-β-D-glucoside (OG) to a concentration of 1 mg/ml and dialysed for 24 h against 2 changes of 5 I PBS with 25 g Biobeads (Amberlite XAD-2) at 22° C.
Indicators are fluorescent compounds which preferentially partition into rafts. These are selected to represent different structural classes, and different excitation/emission wavelengths. This is important when raft modulators are tested which interfere with indicator fluorescence.
Perylene is a raftophilic compound which embeds completely into membranes.
GS-96 is a raftophilic adduct of the general structure cholesterol-linker-rhodamine-peptide (only the cholesterol is membrane-inserted).
N and R Liposomes were diluted into PBS to a final lipid concentration of 200 μg/ml and 100 μl aliquots preincubated 30 min 37° C. on a thermomixer (1000 rpm).
1 μl of DMSO (solvent controls) and the test compound stock solutions (all 10 mM in DMSO, except where noted) were added and incubated 2 h as above.
1 μl indicator in DMSO was then added (final indicator concentrations GS-96 0.2 μM, perylene 2 μM) and incubation continued for 1 h as above
Incubation mixes were centrifuged 20 min in the TLA-100 rotor of the Beckman Optima centrifuge at 400 000 g (37° C.).

RBL-2H3 cells = assay: Degranulation assay (β-hexosaminidase release); type: cell-based, rat
Influenza virus = assay: Virus budding assay (influenza assay); type: cell-based; conditions: MDCK cells
HIV-1 strain NL4-3 = assay: HIV assay: infection of HeLa TZM cells; type: cell-based; conditions: Human immunodeficiency virus 1, NL43, vs solvent
[1] = system: vesicular stomatitis virus (VSV); type: cell-based; conditions: HeLa cells
[2] = unidentified influenza virus, PR8, MDCK, read-out: inhibition of PR8 virus replication
[3] = Rattus norvegicus, RBL-2H3, 25 μM, vs solvent vehicle

Row | SMILES | inhibition at 100 µM (PR8 virus; [2]) [%] | Disrafting Activity [%] (Raft liposomes; perylene as marker) | inhibition at 20 µM (PR8 virus; [2]) [%] | other results
1 | CCCCCCCCCCCCC/C=C/[C@H](O)[C@H](CO)NCCCCCCCCCCCCCCCC [Compound 10o] | 40.8 | 91.0 |  | 
2 | CCCCCCCCCCCCC/C=C/[C@@H](O)[C@H](CO)NC(=O)/C=C(\C)CC/C=C(\C)CCC=C(C)C [Compound 10p] | 39.2 |  |  | Disrafting Activity [%] (Raft liposomes; GS-96 as marker): 58.9%
3 | CCCCCCCCCCCCC/C=C/[C@@H](O)[C@H](CO)NCCCCCCCCCCCCCCCC [Compound 10n] | 34.7 | 94.8 |  | 
4 | CCCCCCCCCCCCC/C=C/[C@@H](O)[C@H](CO)NC(=O)COCCOC [Compound 10h, N-(3,6-Dioxaheptanoyl)-D-erythro-sphingosine] |  | 72.2 | 75 | inhibition at 25 µM (RBL-2H3 cells; [3]): 71%; result in the virus budding assay (Influenza virus): particularly good results
5 | CCCCCCCCCCCCC/C=C/[C@@H](O)[C@H](CO)NC(=O)CCOCCOCCOCCOCCN [Compound 10w] |  | 53.1 |  | inhibition at 25 µM (PR8 virus; [2]): 50.3%; inhibition at 20 µM (HIV-1 strain NL4-3): 52%; inhibition at 6.25 µM (RBL-2H3 cells; Rattus norvegicus, RBL-2H3, 6.25 μM, vs solvent vehicle): 69%
6 | CCCCCCCCCCCCC/C=C/[C@@H](O)[C@H](CO)NC(=O)COC [Compound 10u] |  | 97.0 | 70.3 | inhibition at 25 µM (RBL-2H3 cells; [3]): 63%
7 | CCCCCCCCCCCCC/C=C/[C@@H](OC)[C@H](CO)NC(=O)CCCCC [Compound 10k] |  | 98.6 | 59.3 | 
8 | CCCCCCCCCCCCC/C=C/[C@@H](OC)[C@H](CO)NC(=O)COCCOCCOCCOCCOC [Compound 10v] |  | 96.1 | 87.4 | inhibition of viral reproduction (PR8 virus; influenza): very effective inhibition of the viral reproduction; inhibition at 20 µM (HIV-1 strain NL4-3): 45%; inhibition at 12.5 µM (RBL-2H3 cells; Rattus norvegicus, RBL-2H3, 12.5 μM, vs solvent vehicle): 74%
9 | CCCCCCCCCCCCC/C=C/[C@@H](O)[C@H](CO)NC(=O)[C@H]1CC[C@H](C(C)(C)C)CC1 [Compound 10e, N-(trans-4-tert-butylcyclohexylcarbonyl)-D-erythro-sphingosine] |  |  |  | inhibition at 10 µM (PR8 virus; [2]): 21%
10 | CCCCCCCCCCCCC/C=C/[C@@H](O)[C@H](CO)NC(=O)COCCOC [Compound 10a] |  | 99.2 |  | effect on viral infection in the VSV counterscreen [1]: no inhibitory effect on viral infection at all
11 | CCCCCCCCCCCCCC=CC(O)C(CO)NC(=O)COCCOCCOCCOCCOC [Compound 10g, N-(3,6,9,12,15-Pentoxahexadecanoyl)-D-erythro-sphingosine] |  | 89.3 |  | inhibition of PR8 virus replication (PR8 virus; 20 μM, MDCK cells, vs solvent vehicle): 70%; activity in the mast cell degranulation assay (words) (RBL-2H3 cells): strongly inhibitory; inhibition of the release of β-hexosaminidase (RBL-2H3 cells; 25 μM, vs solvent vehicle): 65%
12 | CCCCCCCCCCCCC/C=C/[C@@H](OC)[C@@H](N)CO [Compound 10l, 3-Methylated D-erythro-sphingosine] |  |  |  | inhibition at 25 µM (RBL-2H3 cells; [3]): 84%
13 | CCCCCCCCCCCCC/C=C/[C@@H](OC)[C@H](CO)NC(=O)/C=C(\C)CC/C=C(\C)CCC=C(C)C [Compound 10q] | 61.6 |  |  | 
